Measured values as given in PMC12152147, “DDB1 engagement defines the selectivity of S656 analogs for cyclin K degradation over CDK inhibition” (EMBO Reports, 2025).
Where two headings read alike, the source gives them in different places.

Columns and labels:
[1] = system: cyclin KeGFP; assay: Cyclin KeGFP reporter system (eGFP/mCherry MFI by flow cytometry);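 also: 10 μM compound for 3 h relative to DMSO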; format: cell-based, H. sapiens; conditions: cyclin K-eGFP reporter
Outline: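 OCI-AML5 clone G7 carrying lentiviral cyclin KeGFP/mCherry reporter. eGFP and mCherry geometric MFI measured by flow cytometry; eGFP/mCherry ratio normalized to DMSO-treated cells.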

[2] = system: OCI-AML5 cells expressing shRNAs targeting CDK1, 2, 4, 7, 9, cyclin K; assay: Dose response in OCI-AML5 expressing shRNAs targeting CDK1, 2, 4, 7, 9, cyclin K or control; format: cell-based, H. sapiens; conditions: for Class: class from shRNA IC50 profile and cyclin K-eGFP degradation; for class based on cellular selectivity: IC50 in shRNA OCI-AML5 cells and cyclin KeGFP degradation
[3] = system: OCI-AML5 cells; assay: Dose-response proliferative assay in OCI-AML5 (4 days, CellTiterGlo); format: cell-based, H. sapiens; conditions: read-out: IC50 in AML5
Outline: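 OCI-AML5 cells in αMEM, 10% heat-inactivated FBS plus 10 ng/mL GM-CSF, 300 cells/well, exposed to 8-point 1:4 serial dilutions (10 μM down to 0.5 nM). Viability read after 4 days in culture at 37 °C, 5% CO2.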

[4] = biological target: T1, CDK9/CyclinT (Homo sapiens, UniProt P50750); assay: CDK9/CyclinT in vitro kinase activity, single concentration 1 μM; format: biochemical; conditions: single concentration 1 μM
T1 construct: purchased BPS Bioscience 79628
Procedure: (§1) Kinase activity was assessed using the kinase assay kits from BPS Bioscience for CDK1, CDK9 and CDK12 with Kinase Glo MAX in duplicates. Compounds were tested at a single concentration of 1 μM for CDK1 and CDK9 activity, and in a dilution ranging from 0.64 nM to 50 μM for CDK12 activity. Chemiluminescence was read using the Neo Synergy BioTek plate reader.

[5] = biological target: T2, CDK1 (Homo sapiens, UniProt P06493); assay: CDK1 in vitro kinase activity, single concentration 1 μM; format: biochemical; conditions: single concentration 1 μM
T2 construct: purchased BPS Bioscience 79597
Procedure: as §1

[6] = system: OCI-AML5 cells expressing shRNA targeting CUL4A or CUL4B; assay: Dose response in OCI-AML5 expressing shRNAs targeting CUL4A, CUL4B or control; format: cell-based, H. sapiens; conditions: ratio of IC50 in shCUL4A vs shCTRL OCI-AML5 cells
[7] = Homo sapiens, OCI-AML-5, OCI-AML5 expressing shRNA CCNK (cyclin K), read-out: IC50 shRNA CCNK
[8] = Homo sapiens, OCI-AML-5, OCI-AML5 expressing shRNA CDK1, read-out: IC50 shRNA CDK1
[9] = Homo sapiens, OCI-AML-5, OCI-AML5 expressing shRNA CDK2, read-out: IC50 shRNA CDK2
[10] = Homo sapiens, OCI-AML-5, OCI-AML5 expressing shRNA CDK4, read-out: IC50 shRNA CDK4
[11] = Homo sapiens, OCI-AML-5, OCI-AML5 expressing shRNA CDK7, read-out: IC50 shRNA CDK7
[12] = Homo sapiens, OCI-AML-5, OCI-AML5 expressing shRNA CDK9, read-out: IC50 shRNA CDK9
[13] = Homo sapiens, OCI-AML-5, OCI-AML5 cells
[14] = OCI-AML5 expressing shRNA CCNK (cyclin K), read-out: IC50 shRNA CCNK
[15] = OCI-AML5 expressing shRNA CDK1, read-out: IC50 shRNA CDK1
[16] = OCI-AML5 expressing shRNA CDK2, read-out: IC50 shRNA CDK2
[17] = OCI-AML5 expressing shRNA CDK4, read-out: IC50 shRNA CDK4
[18] = OCI-AML5 expressing shRNA CDK7, read-out: IC50 shRNA CDK7
[19] = OCI-AML5 expressing shRNA CDK9, read-out: IC50 shRNA CDK9

T1 sequence (P50750 whole entry): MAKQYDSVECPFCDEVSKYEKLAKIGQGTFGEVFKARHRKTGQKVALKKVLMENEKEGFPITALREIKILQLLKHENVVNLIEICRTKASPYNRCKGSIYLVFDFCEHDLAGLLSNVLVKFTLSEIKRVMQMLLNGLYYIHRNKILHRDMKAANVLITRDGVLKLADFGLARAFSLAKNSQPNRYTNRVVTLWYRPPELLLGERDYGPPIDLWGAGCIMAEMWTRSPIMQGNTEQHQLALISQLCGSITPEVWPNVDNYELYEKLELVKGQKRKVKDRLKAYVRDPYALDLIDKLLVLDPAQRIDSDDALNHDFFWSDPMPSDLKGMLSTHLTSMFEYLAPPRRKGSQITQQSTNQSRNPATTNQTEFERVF
T1 sequence (O60563 whole entry partner): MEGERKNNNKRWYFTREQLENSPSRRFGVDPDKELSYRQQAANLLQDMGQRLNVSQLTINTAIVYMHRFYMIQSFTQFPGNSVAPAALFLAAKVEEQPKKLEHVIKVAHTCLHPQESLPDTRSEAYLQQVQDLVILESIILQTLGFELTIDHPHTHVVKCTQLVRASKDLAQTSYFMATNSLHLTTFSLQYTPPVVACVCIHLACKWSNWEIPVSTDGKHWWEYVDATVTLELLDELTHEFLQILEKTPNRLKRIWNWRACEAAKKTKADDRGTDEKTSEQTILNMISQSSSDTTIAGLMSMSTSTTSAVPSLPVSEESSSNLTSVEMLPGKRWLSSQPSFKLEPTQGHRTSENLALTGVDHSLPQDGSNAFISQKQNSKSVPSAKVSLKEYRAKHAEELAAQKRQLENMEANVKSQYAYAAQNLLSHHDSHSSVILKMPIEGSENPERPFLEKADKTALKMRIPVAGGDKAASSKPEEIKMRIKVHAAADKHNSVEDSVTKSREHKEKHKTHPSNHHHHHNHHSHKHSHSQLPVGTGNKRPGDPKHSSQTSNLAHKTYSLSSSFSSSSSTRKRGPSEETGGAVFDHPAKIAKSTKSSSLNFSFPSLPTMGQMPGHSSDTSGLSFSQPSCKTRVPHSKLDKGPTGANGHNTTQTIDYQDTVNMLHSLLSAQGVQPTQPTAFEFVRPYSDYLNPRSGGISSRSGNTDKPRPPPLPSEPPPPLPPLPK
T2 sequence (P06493 whole entry): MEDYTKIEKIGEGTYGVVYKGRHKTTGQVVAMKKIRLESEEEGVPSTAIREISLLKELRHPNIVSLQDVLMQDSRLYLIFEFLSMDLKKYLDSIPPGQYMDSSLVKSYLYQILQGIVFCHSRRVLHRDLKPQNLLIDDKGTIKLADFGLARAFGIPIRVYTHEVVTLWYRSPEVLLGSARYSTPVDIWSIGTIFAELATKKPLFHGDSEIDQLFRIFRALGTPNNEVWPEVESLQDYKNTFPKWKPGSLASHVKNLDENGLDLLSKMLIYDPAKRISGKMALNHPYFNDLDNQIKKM
T2 sequence (P14635 whole entry partner): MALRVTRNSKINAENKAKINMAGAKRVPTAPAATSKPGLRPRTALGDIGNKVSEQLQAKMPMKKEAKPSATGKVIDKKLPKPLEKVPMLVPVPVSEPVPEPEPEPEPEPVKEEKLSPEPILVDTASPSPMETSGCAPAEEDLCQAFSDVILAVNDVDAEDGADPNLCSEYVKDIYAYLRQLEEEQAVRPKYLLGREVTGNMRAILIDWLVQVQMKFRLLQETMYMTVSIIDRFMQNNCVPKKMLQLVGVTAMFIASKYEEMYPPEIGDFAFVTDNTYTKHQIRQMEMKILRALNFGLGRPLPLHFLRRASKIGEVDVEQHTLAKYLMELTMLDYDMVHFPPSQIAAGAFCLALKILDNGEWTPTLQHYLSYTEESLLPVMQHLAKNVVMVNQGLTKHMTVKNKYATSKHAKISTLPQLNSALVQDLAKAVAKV

SMILES | IC50 [2, 7] | IC50 [2, 8] | IC50 [2, 9] | IC50 [2, 10] | IC50 [2, 11] | IC50 [2, 12] | IC50 [3, 13] | inhibition at 1 µM [4] | inhibition at 1 µM [5] | % degradation cyclin K-eGFP [1] | Class [2] | Ratio shCUL4A/shCTRL [6] | class based on cellular selectivity [2] | also measured
O=C(Cc1ccc(-c2ccccc2)cc1)Nc1ncc(SCc2cccnc2)s1 [UOM-005429] | 148 nM | 493 nM | 457 nM | 408 nM | 525 nM | 367 nM | 422 nM | 67% | 25% | 80% | 1 | 2.25 | – | –
C=C(C(=O)Nc1ncc(SCc2cccnc2)s1)c1ccc(CC(C)C)cc1 [UOM-005430] | 7680 nM | 7310 nM | > 10000 nM | > 10000 nM | > 10000 nM | 7720 nM | > 10000 nM | 82% | 83% | 60% | mixed 1-2 | 0.36 | – | –
COc1ccc2cc([C@H](C)C(=O)Nc3ncc(SCc4cccnc4)s3)ccc2c1 [UOM-005431] | – | – | – | – | – | – | – | – | – | 78% | 1 | 2.43 | – | IC50 [2, 14]: 396 nM; IC50 [2, 15]: 1080 nM; IC50 [2, 16]: 1160 nM; IC50 [2, 17]: 979 nM; IC50 [2, 18]: 1080 nM; IC50 [2, 19]: 876 nM; IC50 ([3]; OCI-AML5 cells): 895 nM; % CDK9 inhibition [4]: 78%; % CDK1 inhibition [5]: 53%
O=C(Cc1ccc(CNC(=O)OCC2c3ccccc3-c3ccccc32)cc1)Nc1ncc(SCc2cccnc2)s1 [UOM-005432] | – | – | – | – | – | – | – | – | – | 5% | 2 | 1.02 | Class II | IC50 [2, 14]: 753 nM; IC50 [2, 15]: 293 nM; IC50 [2, 16]: 886 nM; IC50 [2, 17]: 895 nM; IC50 [2, 18]: 807 nM; IC50 [2, 19]: 391 nM; IC50 ([3]; OCI-AML5 cells): 840 nM; % CDK9 inhibition [4]: 62%; % CDK1 inhibition [5]: 100%
CC(=O)Nc1ccc(CC(=O)Nc2ncc(SCc3cccnc3)s2)cc1 [UOM-005473] | 78.6 nM | 154 nM | 197 nM | 227 nM | 221 nM | 152 nM | 210 nM | 90% | 70% | 67% | mixed 1-2 | 2.59 | – | –
O=C(Cc1ccc(NC(=O)c2cccnc2)cc1)Nc1ncc(SCc2cccnc2)s1 [UOM-005475] | 574 nM | 314 nM | 730 nM | 709 nM | 658 nM | 299 nM | 750 nM | 63% | 100% | 0% | 2 | 1.05 | – | –
O=C(Cc1ccc(NC(=O)c2ccncc2)cc1)Nc1ncc(SCc2cccnc2)s1 [UOM-005476] | 576 nM | 350 nM | 574 nM | 626 nM | 646 nM | 270 nM | 660 nM | 66% | 87% | 1% | 2 | 0.87 | Class II | –
CN(C)c1ccc(CC(=O)Nc2ncc(C(C)(C)C)s2)cc1 [UOM-005605] | – | – | – | – | – | – | – | – | – | 76% | 1 | 4.63 | Class I (effective cyclin K MGDs (decreased IC50 in cyclin K depleted cells only, and >65% degradation of cyclin KeGFP)) | IC50 [2, 14]: 341 nM; IC50 [2, 15]: 1140 nM; IC50 [2, 16]: 1140 nM; IC50 [2, 17]: 996 nM; IC50 [2, 18]: 1080 nM; IC50 [2, 19]: 968 nM; IC50 ([3]; OCI-AML5 cells): 1040 nM; % CDK9 inhibition [4]: 5%; % CDK1 inhibition [5]: 1%

More lines, main results first:

IC50 [2, 7] | IC50 [2, 8] | IC50 [2, 9] | IC50 [2, 10] | IC50 [2, 11] | IC50 [2, 12] | IC50 [3, 13] | inhibition at 1 µM [4] | inhibition at 1 µM [5] | SMILES | % degradation cyclin K-eGFP [1] | Class [2] | Ratio shCUL4A/shCTRL [6] | class based on cellular selectivity [2] | also measured
888 nM | 2240 nM | 2420 nM | 1920 nM | 2270 nM | 1690 nM | 1950 nM | 100% | 37% | O=C(Cc1coc2cc3c(cc12)CCC3)Nc1ncc(SCc2cccnc2)s1 [UOM-005479] | 76% | 1 | 1.94 | Class I (effective cyclin K MGDs (decreased IC50 in cyclin K depleted cells only, and >65% degradation of cyclin KeGFP)) | –
481 nM | 566 nM | 912 nM | 897 nM | 916 nM | 554 nM | 1070 nM | 64% | 35% | O=C(Cc1ccc(-c2ccncc2)cc1)Nc1ncc(SCc2cccnc2)s1 [UOM-005550] | 35% | mixed 1-2 | 0.87 | – | –
785 nM | 700 nM | 1440 nM | 1840 nM | 1470 nM | 794 nM | 1330 nM | 65% | 81% | O=C(Cc1ccc(N2CCOCC2)cc1)Nc1ncc(SCc2cccnc2)s1 [UOM-005606] | 45% | mixed 1-2 | 1.07 | – | –
45.2 nM | 160 nM | 180 nM | 160 nM | 170 nM | 125 nM | 152 nM | 54% | 63% | O=C(Cc1ccc(N2CCCC2)cc1)Nc1ncc(SCc2cccnc2)s1 [UOM-005608] | 77% | 1 | 2.84 | Class I (effective cyclin K MGDs (decreased IC50 in cyclin K depleted cells only, and >65% degradation of cyclin KeGFP)) | –
